Reference: patent US9732053B2, “1-[2-(2,4-dimethylphenylsulfanyl) phenyl]piperazine acetate in crystalline form” (LEK PHARMACEUTICALS D.D., priority 2013, dated 2017)
Where a name gives a salt, the structure may show the parent alone.

Legend:
[1] = room temperature; data from WO 2007/144005 A1 and WO 2010/121621 A1; cited from earlier work
[2] = Slurry experiments in n-heptane for thermodynamic stability (Examples 12-13); type: physicochemical; details: room temperature
Protocol: Slurry experiments were performed to determine the order of the thermodynamic stability of the solid state forms at room temperature (see also Examples 12-13 of the present invention).
35 mg of vortioxetine acetate form Ill was suspended in 0.5 mL n-heptane and stirred with a magnetic stirrer at room temperature for 4 weeks.
25 mg of vortioxetine acetate form I was suspended in 0.5 mL n-heptane and stirred with a magnetic stirrer at room temperature for 24 h.

[3] = Gravimetric moisture sorption/desorption cycle; type: physicochemical; details: for Δm (0-80% RH), water absorption: 25° C.; for Structural changes during moisture sorption: sorption desorption cycle, XRPD
Protocol: Moisture sorption isotherms were recorded with an SPSx-1μ moisture sorption analyzer (ProUmid, Ulm). The measurement cycle was started at 3% relative humidity (RH). Then the RH was increased from 5% to 75%, decreased to 0% and increased to 80% in 5% steps. Finally the RH was decreased to 0% in 10% steps and equilibrated in a last step to 35%. The time per step was set to a minimum of 1 hour and a maximum of 3 hours. If an equilibrium condition with a constant mass of ±0.01% within 1 hour was reached before the maximum time for all examined samples, the sequential humidity step was applied before the maximum time of 3 hours. If no equilibrium was achieved, the consecutive humidity step was applied after the maximum time of 3 hours. The temperature was 25±0.1° C. The final water content was determined by coulometric Karl Fischer titration.
Coulometric Karl Fischer titration was performed with a Metrohm 831 KF Coulometer equipped with a double-platinum detecting electrode, a Metrohm 832 KF Thermoprep oven (130° C.) and Hydranal Coulomat AK as Karl Fischer reagent.

[4] = Stress tests at increased relative humidity with XRPD analysis (Examples 10-11); type: physicochemical
Protocol: X-ray powder diffractograms (XRPD) were obtained with an X'Pert PRO diffractometer (PANalytical, Almelo, The Netherlands) equipped with a theta/theta coupled goniometer in transmission geometry, programmable XYZ stage with well plate holder, Cu-Kα1,2 radiation source (wavelength 0.15419 nm) and a solid state PIX'cel detector. The diffractograms were recorded at a tube voltage of 45 kV, tube current of 40 mA applying a step size of 0.013° 2-theta with 40 s per step (255 channels) in the angular range of 2° to 40° 2-theta at ambient conditions. A typical precision of the 2-theta values is in the range of about ±0.2° 2-theta. Thus a diffraction peak that appears at 5.0° 2-theta can appear between 4.8 and 5.2° 2-theta on most X-ray diffractometers under standard conditions.
42 mg of vortioxetine acetate form Ill was stressed at 40° C./75% RH for 4 weeks.
34 mg of vortioxetine acetate form Ill were stressed at RT/97% RH for 4 weeks.

[5] = Water solubility determination of vortioxetine acetate form III (Example 9); type: physicochemical
Protocol: 100 μL water was added to 100.34 mg of vortioxetine acetate form Ill. The mixture was vigorously shaken for 2 min and placed at 25° C. for 15 min. The solid was not completely dissolved, therefore a further 100 μL of water was added and the dissolving procedure repeated. […] According to […]

[6] = listed as acetate form I, acetate
[7] = listed as acetate form III, acetate

**Q.** For `CC(O)C(=O)O.Cc1ccc(Sc2ccccc2N2CCNCC2)c(C)c1` [DL-lactate form β], which Aqueous solubility [1] is on record?
**A.** 8 mg base/mL

**Q.** With `Br.Cc1ccc(Sc2ccccc2N2CCNCC2)c(C)c1` [HBr form α] as the compound, how does the Aqueous solubility [1] read?
**A.** 2 mg base/mL

**Q.** For `Br.Cc1ccc(Sc2ccccc2N2CCNCC2)c(C)c1` [HBr form β], which Aqueous solubility [1] is on record?
**A.** 1.2 mg base/mL

**Q.** For `Cc1ccc(Sc2ccccc2N2CCNCC2)c(C)c1` [HCl MH], which Aqueous solubility [1] is on record?
**A.** 2 mg base/mL

**Q.** For `Cc1ccc(Sc2ccccc2N2CCNCC2)c(C)c1.Cl` [HCl], which Aqueous solubility [1] is on record?
**A.** 3 mg base/mL

**Q.** With `CC(O)C(=O)O.Cc1ccc(Sc2ccccc2N2CCNCC2)c(C)c1` [L-lactate form MH2] as the compound, how does the Aqueous solubility [1] read?
**A.** 26 mg base/mL

**Q.** Which Aqueous solubility [1] does the source give for `Cc1ccc(Sc2ccccc2N2CCNCC2)c(C)c1` [free base, 1-[2-(2,4-Dimethylphenylsulfanyl)phenyl]piperazine] here?
**A.** 0.1 mg base/mL

**Q.** Which “Structural changes after slurry (XRPD)” value ([2]; stirred 24 h, acetate) does the source give for `CC(=O)O.Cc1ccc(Sc2ccccc2N2CCNCC2)c(C)c1` [vortioxetine acetate form I, 1-[2-(2,4-dimethylphenylsulfanyl)phenyl]piperazine acetate] here?
**A.** transformed to form III

**Q.** What about the “Structural changes after slurry (XRPD)” value ([2]; stirred 24 h, listed as Form I of vortioxetine acetate) of the same compound?
**A.** undergoes a transition to form III

**Q.** What about the “Δm (0-80% RH), water absorption” value [3, 6] of the same compound?
**A.** +2%

**Q.** What about the “Δm (0-80% RH), water absorption” value ([3]; listed as form I, acetate) of the same compound?
**A.** 2%

**Q.** And the “Structural changes during moisture sorption” value [3, 6]?
**A.** partial decomposition to free base

**Q.** And the “Structural changes during moisture sorption” value ([3]; listed as form I, acetate)?
**A.** partial decomposition of the acetate salt to the free base

**Q.** For `CC(=O)O.Cc1ccc(Sc2ccccc2N2CCNCC2)c(C)c1` [vortioxetine acetate form III, 1-[2-(2,4-dimethylphenylsulfanyl)phenyl]piperazine acetate], which “Structural changes after stress (XRPD)” value ([4]; 40° C./75% RH for 4 weeks) is on record?
**A.** no structural changes

**Q.** And the “Structural changes after stress (XRPD)” value ([4]; RT/97% RH for 4 weeks)?
**A.** no structural changes

**Q.** What about the “Aqueous solubility calculated as free base” value ([5]; 25° C. / room temperature, converted from acetate salt by Equation 1) of the same compound?
**A.** 278 mg base/mL

**Q.** And the solubility ([5]; thermodynamic from solid, 25° C., 100.34 mg dissolved in 300 μL, read-out: Solubility of the acetate salt in water)?
**A.** 334 mg/mL

**Q.** And the “Structural changes after slurry (XRPD)” value ([2]; stirred 4 weeks, acetate)?
**A.** does not undergo any transformation

**Q.** And the “Structural changes after slurry (XRPD)” value ([2]; stirred 4 weeks, listed as vortioxetine acetate form Ill)?
**A.** no structural changes

**Q.** And the “Δm (0-80% RH), water absorption” value [3, 7]?
**A.** +0.4%^

**Q.** And the “Hygroscopicity according to European Pharmacopoeia” value ([3]; gravimetric moisture sorption desorption curve, FIG. 6)?
**A.** only slightly hygroscopic

**Q.** And the Water content ([3]; relative humidity of about 0%)?
**A.** about 0.3%

**Q.** What about the Water content ([3]; relative humidity of about 80%, acetate) of the same compound?
**A.** less than 0.7%

**Q.** And the Water content ([3]; relative humidity of about 80%, listed as form III of vortioxetine acetate, acetate)?
**A.** about 0.7%

**Q.** What about the “Structural changes during moisture sorption” value [3, 7] of the same compound?
**A.** no changes from 0-97% RH

**Q.** Which Aqueous solubility [1] does the source give for fumarate here?
**A.** 0.4 mg base/mL

**Q.** Which Aqueous solubility [1] does the source give for maleate here?
**A.** ≈1 mg base/mL

**Q.** With phosphate as the compound, how does the Aqueous solubility [1] read?
**A.** ≈1 mg base/mL
